Data on five molecules can be found in patent US20170226514A1, “PREVENTION OF TUMOUR METASTASIS BY INHIBITION OF NECROPTOSIS” (MAX-PLANCK-GESELLSCHAFT ZUR FÖRDERUNG DER WISSENSCHAFTEN …, priority 2014, published 2017).

In test [1] the test system is HUVEC. The test is described as follows: Cell death assay discriminating apoptotic from necrotic cell death in HUVEC. In kind it is cell-based, human. The settings on record: stimulated overnight; staining with Hoechst 33342 and EtDIII. How it is done:
Endothelial cells were grown to reach 80-90% confluency before addition of Ethidium homodimer […]) alone or together with substances or with tumour cells together with substances or inhibitors as indicated in the figures. After 6-18 h, cells were stained with Hoechst33342 and images were acquired. In order to identify the mode of cell death, all images were analyzed with FIJI. The total number of nuclei was determined through a low threshold over all Hoechst positive nuclei. On the same channel a second, separate threshold was used to determine the number of condensed nuclei. A third threshold on the second channel was used in order to determine the number of nuclei that were stained positive for […]. Knockdown in cells was achieved by double-transfection with siRNA using Lipofectamie […] Assays: HUVECs, HMVECs-L or L929 cells (1.5×10^4 at seeding in 100 μl) were cultured for 24 hours in 96-well plates. To induce cell death, cells were stimulated overnight with either rhTRAIL (100 ng/ml, Peprotech), Staurosporine ([…], Jena BioScience), H2O2 (1 mM, AppliChem) or […] (100 ng/ml, Peprotech) or cultured under hypoxic conditions (1% O2, Coy Laboratory Inc). […] Knockdown efficiencies were determined by Western Blotting using antibodies against RIPK3 (Abcam), Caspase-8 (ProSci) and a-tubulin (Sigma) upon lysis with Laemmli buffer or by quantitative PCR (Roche). […] Knockdown efficiencies were determined using quantitative PCR (Roche). Tumor cell number upon knockdown was determined by counting Hoechst33342-positive cells, and tumor cell death was determined by counting condensed and/or EthD-III-positive nuclei (see below). Cell migration was determined by a scratch assay Wang et al., 2007). […]

For a further test, the target named is T1, RIPK1 (Homo sapiens, UniProt Q13546).
T1 sequence (Q13546 1-671): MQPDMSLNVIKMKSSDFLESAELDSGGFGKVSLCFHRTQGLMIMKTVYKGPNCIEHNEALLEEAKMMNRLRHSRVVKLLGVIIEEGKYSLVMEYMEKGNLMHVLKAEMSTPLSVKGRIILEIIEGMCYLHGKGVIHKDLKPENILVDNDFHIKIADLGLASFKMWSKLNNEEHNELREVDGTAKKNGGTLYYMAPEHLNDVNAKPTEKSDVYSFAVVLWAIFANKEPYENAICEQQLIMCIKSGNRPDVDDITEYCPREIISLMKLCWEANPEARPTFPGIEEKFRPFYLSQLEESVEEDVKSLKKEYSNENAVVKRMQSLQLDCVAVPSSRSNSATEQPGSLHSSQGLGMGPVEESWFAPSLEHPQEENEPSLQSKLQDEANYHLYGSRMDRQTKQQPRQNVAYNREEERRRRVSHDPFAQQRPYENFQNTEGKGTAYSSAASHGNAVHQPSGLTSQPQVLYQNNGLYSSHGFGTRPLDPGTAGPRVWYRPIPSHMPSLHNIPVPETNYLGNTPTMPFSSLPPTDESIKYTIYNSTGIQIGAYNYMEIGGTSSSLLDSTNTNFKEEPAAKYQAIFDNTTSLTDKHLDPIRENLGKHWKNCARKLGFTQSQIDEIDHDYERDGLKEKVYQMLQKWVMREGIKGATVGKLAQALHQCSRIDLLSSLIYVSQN
The conditions noted are these: cited from earlier work.

For the next test, the system named is necroptosis. The conditions noted are these: where Nec1i can be modified to an active form; cited from earlier work.
Test [2] deals with HUVEC. The test can be described thus: Tumour cell-induced endothelial cell necroptosis in vitro (co-culture, Hoechst 33342/EtDIII staining). In kind it is cell-based, human. The settings on record: Nec-1 30 μM, co-culture overnight. How it is done:
Endothelial cells were grown to reach 80-90% confluency before addition of Ethidium homodimer […]) alone or together with substances or with tumour cells together with substances or inhibitors as indicated in the figures. After 6-18 h, cells were stained with Hoechst33342 and images were acquired. In order to identify the mode of cell death, all images were analyzed with FIJI. The total number of nuclei was determined through a low threshold over all Hoechst positive nuclei. On the same channel a second, separate threshold was used to determine the number of condensed nuclei. A third threshold on the second channel was used in order to determine the number of nuclei that were stained positive for […]. Knockdown in cells was achieved by double-transfection with siRNA using Lipofectamie […] […] Knockdown efficiencies were determined by Western Blotting using antibodies against RIPK3 (Abcam), Caspase-8 (ProSci) and a-tubulin (Sigma) upon lysis with Laemmli buffer or by quantitative PCR (Roche). […] Knockdown efficiencies were determined using quantitative PCR (Roche). Tumor cell number upon knockdown was determined by counting Hoechst33342-positive cells, and tumor cell death was determined by counting condensed and/or EthD-III-positive nuclei (see below). Cell migration was determined by a scratch assay Wang et al., 2007). […]

Test [3] deals with endothelial cells of the mouse lung. The test can be described thus: Tumour cell-induced endothelial cell death in vivo (EthD-III-positive endothelial cells in lung, 6 h). The conditions noted are these: B16 tumour cells i.v., Nec-1 1.65 μg/g i.v. per dose. How it is done:
(§1) In vivo: Tumour cells and substances or inhibitors were injected i.v. as depicted in the scheme in FIG. 5B into wildtype animals or animals of the respective genotype. To identify EtDIII-positive cells in vivo, animals were injected with EtDIII i.v. 10 min before sacrifice. Organs were isolated and processed for immunohistochemical analysis. For determining the number of metastasis, animals were sacrificed, lungs were isolated and macroscopically analyzed. All reagents used for these studies (incl. DR6-Fc) are commercially available (e.g. Lonza, CellSignaling, Sigma, R&D, etc.). […]
(§2) TUNEL staining kit was from Roche. Sections were analyzed in XYZ views on a Leica SPS confocal microscope. The number of EthD-III-positive endothelial cells was determined by manual counting of EthD-III/ERG- or EthD-III/CD31-positive cells on a minimum of four random tissue sections per organ. For quantification of extravasating tumor cells, cryosections were analyzed by two criteria: tumor cells directly surrounded by CD31 staining (i.e. blood vessel) and with a noninvasive phenotype (i.e. round cell shape) were scored as intravascular, while cells outside blood vessels with an invasive phenotype (i.e. irregular cell shape with protrusions) were scored as extravascular. […]

Another test deals with L929 cells. The test is described as follows: Cell death assay in L929 cells (TNF-induced necroptosis, Hoechst 33342/EtDIII staining). The settings on record: L929 cells treated with TNFα; staining with Hoechst 33342 and EtDIII. In kind it is cell-based, mouse. How it is done:
Cell Death Assays: HUVECs, HMVECs-L or L929 cells (1.5×10^4 at seeding in 100 μl) were cultured for 24 hours in 96-well plates. To induce cell death, cells were stimulated overnight with either rhTRAIL (100 ng/ml, Peprotech), Staurosporine ([…], Jena BioScience), H2O2 (1 mM, AppliChem) or […] (100 ng/ml, Peprotech) or cultured under hypoxic conditions (1% O2, Coy Laboratory Inc). […] Knockdown efficiencies were determined by Western Blotting using antibodies against RIPK3 (Abcam), Caspase-8 (ProSci) and a-tubulin (Sigma) upon lysis with Laemmli buffer or by quantitative PCR (Roche). […] Knockdown efficiencies were determined using quantitative PCR (Roche). Tumor cell number upon knockdown was determined by counting Hoechst33342-positive cells, and tumor cell death was determined by counting condensed and/or EthD-III-positive nuclei (see below). Cell migration was determined by a scratch assay Wang et al., 2007). […] To all images to be analyzed, a Gaussian blur with a radius of 3 pixels was applied to prevent repeatedly counting of fragmented parts of apoptotic nuclei. […] The total number of all endothelial nuclei was determined through a low threshold (TH1) and application of a watershed on the resulting binary image over all Hoechst positive nuclei (minus the nuclei from tumor cells). […]

For the next test, the system named is B16 or LLC1 tumour cells. The test can be described thus: Metastasis model: lung metastases after i.v. tumour cell injection (12 d). In kind it is in vivo, mouse. The conditions noted are these: Nec-1 1.65 μg/g i.v. per dose, lungs at 12 d. The protocol:
as §1, §2

Turning to `OO` [H2O2], the “type of cell death induced in HUVEC” value with HUVEC [1] is “necrotic phenotype”. With `O=C1NC(=S)NC1Cc1c[nH]c2ccccc12` (stereo not drawn) [Nec-1 inactive, 5-((1H-indol-3-yl)methyl)-2-thioxoimidazolidin-4-one], the “effectiveness in vitro relative to Nec-1 (times less effective)” value at RIPK1 is reported as “approximately 100 times”. In addition, in the test on necroptosis, the “inhibition of necroptosis in cellular systems or in vivo” value is listed as “can efficiently inhibit necroptosis”.

For the molecule `CN1C(=O)C(Cc2c[nH]c3ccccc23)NC1=S` (stereo not drawn) [Nec-1, 5-(1H-indo1-3-ylmethyl)-3-methyl-2-thioxo-4-imidazolidinone], the “tumour cell-induced necroptosis of endothelial cells in vitro (number of necroptotic HUVEC)” value with HUVEC [2] is reported as “reduced”. Also, in test [3], the “tumour cell-induced endothelial necroptosis in vivo (necroptotic ECs)” value is recorded as “reduced”. Moreover, in the test on L929 cells, the “TNF-induced necrotic (necroptotic) phenotype of L929 cells, effect of addition of inhibitor” value is reported as “could be blocked”. Moreover, the “metastasis formation in vivo” value in the test on B16 or LLC1 tumour cells is given as “reduced”. With `CN[C@@H]1C[C@H]2O[C@@](C)([C@@H]1OC)n1c3ccccc3c3c4c(c5c6ccccc6n2c5c31)C(=O)NC4` [Staurosporine], the “type of cell death induced in HUVEC” value in the test with HUVEC [1] is listed as “induced apoptosis”.

B1: TRAIL: known stimulus for apoptosis, rhTRAIL from Peprotech (protein, UniProt P50591 1-281, looked up)
Tumor necrosis factor ligand …: MAMMEVQGGPSLGQTCVLIVIFTVLLQSLCVAVTYVYFTNELKQMQDKYSKSGIACFLKEDDSYWDPNDEESMNSPCWQVKWQLRQLVRKMILRTSEETISTVQEKQQNISPLVRERGPQRVAAHITGTRGRSNTLSSPNSKNEKALGRKINSWESSRSGHSFLSNLHLRNGELVIHEKGFYYIYSQTYFRFQEEIKENTKNDKQMVQYIYKYTSYPDPILLMKSARNSCWSKDAEYGLYSIYQGGIFELKENDRIFVSVTNEHLIDMDHEASFFGAFLVG
B1: the “type of cell death induced in HUVEC” value in the test with HUVEC [1] is given as “induced apoptosis”.
